Consider two molecules from PMC8111447 (Frontiers in Pharmacology, 2021).

The structures appear in SMILES notation. Read-outs that look alike come from different tables or passages of the source.

As a reminder, the Tmax is the time from dosing to the highest level.

For data set [1], the system named is EGFR phosphorylation in PC-9 cells. The experiment in a line: Phosphorylation of EGFR assay after wash-out. In kind it is cell-based, human. To be noted: 0.1 μmol/L for 2 h, then washed out. Here is the method: (§1) Cells (NCI-H1975/PC-9/[…]) were seeded into a 384-well plate (10,000 cells/well), grown for 24 h, and then treated with 0.1 μmol/L of test compounds for 2 h. Cells were washed with fresh medium once. Then, 50 μl of medium was added in each well and the plate was cultured in an incubator for 0, 1, 2, 6 and 24 h. Cells were washed with ice-cold Hanks Balanced Salt Solution (HBSS) before extraction with 25 μl cell lysis buffer. The phosphorylation levels of EGFR were measured as described above.

In data set [2] the test system is EGFR phosphorylation in NCI-H1975 cells. The experiment in a line: Phosphorylation of EGFR assay after wash-out. In kind it is cell-based, human. To be noted: 0.1 μmol/L for 2 h, then washed out. Here is the method:
as §1

Data set [3] in a line: Metabolite profiling in liver microsomes. In kind it is in vitro ADME. To be noted: incubation 60 min at 37°C; mouse, rat, dog, monkey and human liver microsomes. Here is the method: Metabolite profiling was conducted in mouse, rat, dog, monkey, and human liver microsomes in vitro as well as in rat plasma, feces, and urine samples in vivo (From other experiments). […] All samples were analyzed by the LC/MS/MS (AB Sciex, API 5500 Qtrap) system. The structures of major metabolites were elucidated based on EPI spectra and further verified using authentic standards. The main metabolite Imp3 was quantified in multiple reaction monitoring mode in rat, dog and human clinical samples.
For orientation: Microsomes from liver hold many membrane-bound enzymes, among them those of drug oxidation.

Data set [4] has as its system phosphorylation of EGFR and ERK. As to the kind of experiment: Immunohistochemistry of tumor tissue from NCI-H1975 xenograft model. In kind it is in vivo, Nu/Nu nude mice. To be noted: 6–24 h. Here is the method:
Paraffin-embedded tumor tissues from each group were sectioned, mounted on positively charged glass slides, baked, deparaffinized, and rehydrated. Antigen retrieval was performed by heating slides in EDTA (pH 8.0) for 10 min. Sections were incubated in p-EGF Receptor ([…]) Rabbit antibody and Phospho-p44/42 MAPK (Erk1/2) (Thr202/Tyr204) (20G11) Rabbit antibody overnight at 4°C and then incubated with Anti-Rabbit IgG (H + L) at 37°C for 45 min. The sections were then stained with diaminobenzidine (DAB) and visualized.

Data set [5] in a line: Plasma pharmacokinetics in NCI-H1975 tumor-bearing mice. The note with it: for AUC(0-t): po, read-out: AUC0–t in plasma. In kind it is in vivo. Here is the method: (§2) NCI-H1975 tumor-bearing mice with tumor burden of approximately 200 mm^3 were used in the pharmacokinetics and pharmacodynamics study. […] Blood samples were collected at 0 (pre-dose), 10, 30 min, 1, 2, 4, 8, and 24 h post-dose.
(§3) Ionization mode. Drug to internal standard peak area ratios for the standards were used to create a calibration curve using 1/×^2 weighted least-squares regression analysis. Concentrations of each analyte were quantified by comparing the ratios for each in-trial sample with those in the relevant calibration curve.

Data set [6] concerns EGFR phosphorylation (pY1068) in PC-9 cells. As to the kind of experiment: Phosphorylation of EGFR assay, time course. In kind it is cell-based, human. The note with it: 0.1 μmol/L, 1-10 h. Here is the method:
(§4) Cells (NCI-H1975/PC-9/[…]) were seeded into a 384-well plate (10,000 cells/well), grown for 24 h, and then treated with different test compounds (0.1 μmol/L) for 1, 2, 4, 6, 8 and 10 h. A431 cells were stimulated with 100 ng/ml EGF after incubation for 10 min. Cells were washed with ice-cold HBSS before extraction with 25 μl cell lysis buffer. Phosphorylation of EGFR was measured using a sandwich ELISA assay with phospho-specific EGFR (pY1068) antibodies [AlphaLISA SureFire p-EGF Receptor (Tyr1068) Assay Kit, PerkinElmer].

In data set [7] the test system is EGFR phosphorylation (pY1068) in A431 cells. The experiment in a line: Phosphorylation of EGFR assay, time course. In kind it is cell-based, human. The note with it: 0.1 μmol/L, 1-10 h, EGF stimulated. Here is the method:
as §4

A short description of data set [8]: Tissue distribution in NCI-H1975 tumor-bearing mice. In kind it is in vivo. Here is the method:
as §2, §3

The subject of data set [9] is PC-9 (exon 19 del) xenograft. As to the kind of experiment: PC-9 xenograft model. To be noted: oral, 2.5 to 15 mg/kg. In kind it is in vivo, Nu/Nu nude mice. Here is the method:
(§5) The female Nu/Nu nude mice were purchased from Beijing Vital River Laboratories. […] Nu/Nu nude mice were purchased from the Beijing Vital River Laboratories of China. The 6–8 weeks old female mice were inoculated subcutaneously at the right flank with approximately 3–5 × 10^6 tumor cells in 0.2 ml of medium. The treatments were started when the tumor size reached approximately 200 mm^3. […] All mice were orally administrated once daily for consecutive 14 days. Mouse body weight, tumor weight and tumor volume (TV) were measured twice per week. TV was then used for the calculation of tumor inhibitory rate and tumor regression rate.

Data set [10] deals with A431 (wild-type EGFR) tumor xenografts. As to the kind of experiment: A431 xenograft model. In kind it is in vivo, Nu/Nu nude mice. To be noted: 5 mg/kg/day. Here is the method:
as §5

Data set [11] has as its system NCI-H1975 (L858R/T790M) xenograft. The experiment in a line: NCI-H1975 xenograft model. In kind it is in vivo, Nu/Nu nude mice. To be noted: for tumor growth inhibition rate: after 14 days of dosing, vs vehicle. Here is the method:
as §5

As for `C=CC(=O)Nc1cc(Nc2nccc(-c3c4n(c5ccccc35)CCCC4)n2)c(OC)cc1N(C)CCNC` [Imp3], the “duration of continued inhibition of EGFR phosphorylation after wash-out” value in data set [1] and in [2] was “at least 6 h” in each case.

For `C=CC(=O)Nc1cc(Nc2nccc(-c3c4n(c5ccccc35)CCCC4)n2)c(OC)cc1N(C)CCN(C)C` [SH-1028], in data set [3], the “number of metabolites detected” value was determined as 27. Also, in data set [4], the “phosphorylation levels of EGFR and ERK in tumor tissues” value is “continuously inhibit the phosphorylation of EGFR and ERK”. The AUC(0-t) is 272 ng·h/mL in [5] (Nu/Nu nude, mouse, plasma, 2.5 mg/kg, 2.5 mg/kg oral daily, Day 14); 118 ng·h/mL in data set [5] (Nu/Nu nude, mouse, plasma, 2.5 mg/kg, 2.5 mg/kg oral, Day 1); 308 ng·h/mL in data set [5] (Nu/Nu nude, mouse, plasma, 5 mg/kg, 5 mg/kg oral daily, Day 14); 300 ng·h/mL in [5] (Nu/Nu nude, mouse, plasma, 5 mg/kg, 5 mg/kg oral, Day 1); 993 ng·h/mL in data set [5] (Nu/Nu nude, mouse, plasma, 15 mg/kg, 15 mg/kg oral daily, Day 14); 931 ng·h/mL in data set [5] (Nu/Nu nude, mouse, plasma, 15 mg/kg, 15 mg/kg oral, Day 1). Further, the Tmax in data set [5] (Nu/Nu nude, mouse, plasma, oral 2.5, 5 and 15 mg/kg) was in the range of 1.5 to 2 h. For the same molecule, the “accumulation between Days 1–14” value in data set [5] (oral daily dosing for 14 days) is on record as “no significant accumulation”. Besides, the “inhibitory effect on EGFR phosphorylation” value in [6] is recorded as “stronger than that of osimertinib”; in data set [7], “weak inhibitory effect”. For the same molecule, the “duration of continued inhibition of EGFR phosphorylation after wash-out” value in data set [1] and in data set [2] was “at least 6 h” each time. Moreover, the “distribution into tissues (tumor tissues, adjacent lung tissues and brain)” value in data set [8] (15 mg/kg oral, within 2 h, Day 1) is “rapidly and extensively distributed into tissues”. Besides, in data set [8] (pharmacokinetic experiments), the blood-brain barrier penetration entry is “could penetrate the blood-brain barrier”. The values for the tumor growth result in data set [9] and in [10] were “significant inhibition of tumor cell growth” and “moderate tumor growth inhibition”, respectively. The results for the “tumor growth inhibition rate” value in data set [11] (2.5 mg/kg oral once daily), in data set [11] (5 mg/kg oral once daily) and in data set [11] (15 mg/kg oral once daily) were 72.6%, 91.8% and 98.8%, respectively. Further, in data set [11] (2.5 to 15 mg/kg oral once daily, 14 days), the body weight entry was “no TKI-induced weight loss”.
